Legend:
[1] = Acute toxicity in male BALB/c mouse assessed effect on liver at 20 to 30 mg/kg, ip measured after 7 days by H and E staining based analysis; assay type: organism-based; settings: in vivo, 168 h, dose 20-30 mg/kg, time 7 day
[2] = Acute toxicity in male BALB/c mouse assessed infiltration of inflammatory cells at 20 to 30 mg/kg, ip measured after 7 days by H and E staining based analysis; assay type: organism-based; settings: in vivo, 168 h, dose 20-30 mg/kg, time 7 day
[3] = Acute toxicity in male BALB/c mouse assessed lethal dose administered as ip dose measured for 7 days; assay type: organism-based; settings: in vivo, time 7 day
[4] = Stability in mouse serum assessed as half life measured after 1 hr by HPLC analysis; assay type: ADME, cell-free
[5] = Acute toxicity in male BALB/c mouse assessed appearance of aberrant alveolar morphology at 20 to 30 mg/kg, ip measured after 7 days by H and E staining based analysis; assay type: organism-based; settings: in vivo, 168 h, dose 20-30 mg/kg, time 7 day
[6] = Acute toxicity in male BALB/c mouse assessed appearance of augmented alveolar interstitial space at 20 to 30 mg/kg, ip measured after 7 days by H and E staining based analysis; assay type: organism-based; settings: in vivo, 168 h, dose 20-30 mg/kg, time 7 day
[7] = Acute toxicity in male BALB/c mouse assessed appearance of lung congestion at 20 to 30 mg/kg, ip measured after 7 days by H and E staining based analysis; assay type: organism-based; settings: in vivo, 168 h, dose 20-30 mg/kg, time 7 day
[8] = Acute toxicity in male BALB/c mouse assessed infiltration of inflammatory cells in kidney at 20 to 30 mg/kg, ip measured after 7 days by H and E staining based analysis; assay type: organism-based; settings: in vivo, 168 h, dose 20-30 mg/kg, time 7 day
[9] = Acute toxicity in male BALB/c mouse assessed infiltration of inflammatory cells in spleen at 20 to 30 mg/kg, ip measured after 7 days by H and E staining based analysis; assay type: organism-based; settings: in vivo, 168 h, dose 20-30 mg/kg, time 7 day
[10] = Stability in mouse serum assessed as retention time measured after 1 hr by RP-HPLC analysis; assay type: ADME, cell-free
[11] = Acute toxicity in male BALB/c mouse assessed effect on lung at 20 to 30 mg/kg, ip measured after 7 days by H and E staining based analysis; assay type: organism-based; settings: in vivo, 168 h, dose 20-30 mg/kg, time 7 day

Compound: CC(C)CCCCC(=O)N[C@@H](CCN)C(=O)N[C@H](C(=O)N[C@@H](CCN)C(=O)N[C@H]1CCNC(=O)[C@H]([C@@H](C)O)NC(=O)[C@H](CCN)NC(=O)[C@H](CCN)NC(=O)[C@H](CC(C)C)NC(=O)[C@@H](Cc2ccccc2)NC(=O)[C@H](CCN)NC1=O)[C@@H](C)O.CC[C@H](C)CCCCC(=O)N[C@@H](CCN)C(=O)N[C@H](C(=O)N[C@@H](CCN)C(=O)N[C@H]1CCNC(=O)[C@H]([C@@H](C)O)NC(=O)[C@H](CCN)NC(=O)[C@H](CCN)NC(=O)[C@H](CC(C)C)NC(=O)[C@@H](Cc2ccccc2)NC(=O)[C@H](CCN)NC1=O)[C@@H](C)O
- Activity [1]: Toxic
- Activity [2]: Toxic
- LD50 at 168 h [3]: 23.6 mg/kg
- half-life [4]: 10.5 h
- Activity [5]: Toxic
- Activity [6]: Toxic
- Activity [7]: Toxic
- Activity [8]: Non-toxic
- Activity [9]: Non-toxic
- Retention_time [10]: 13.545 min
- Activity [11]: Toxic

Reference: ChEMBL document CHEMBL6114980, “Single or double lipid-modified ultra-short antimicrobial peptides for treating infections caused by resistant bacteria” (Eur J Med Chem, 2025)
